# According to BindingDB's records for doi:10.1016/s0960-894x(03)00742-x (Keio University, 2003):
# Molecular target: alpha-L-fucosidase (Bos taurus)
# Assay: Inhibitory activity against alpha-Fucosidase in bovine kidney
smiles,measurement,value
C[C@@H]1CC(NCCc2ccccc2)[C@@H](O)[C@@H](O)[C@@H]1O (some centres not stated),IC50,7.5 µM
"CCCCCCCCCCCCN[C@H]1CC(C)[C@@H](O)C(O)[C@@H]1O (stereo partly drawn) [(1R,3R,4S)-4-Dodecylamino-6-methyl-cyclohexane-1,2,3-triol]",IC50,1.2 µM
